Consider eleven compounds from article PMC12250965, “Design and Synthesis of Sulfonium and Selenonium Derivatives Bearing 3′,5′-O-Benzylidene Acetal Side Chain Structure as Potent α-Glucosidase Inhibitors” (Molecules, 2025).

Like-named read-outs stand apart in the source and are kept apart here.

Data set [1] concerns the target rat intestinal maltase. In words: In vitro α-glucosidase inhibition assay, rat intestinal maltase. The format is biochemical. As to conditions: rat small intestinal brush border membrane vesicles; maltose substrate; mean ± SD (n = 3); read-out: IC50 against maltase. The method, then:
(§1) The testing method previously described was modified and used. Thus, rat small intestinal brush border membrane vesicles were first prepared, and its suspension in 0.1 M maleate buffer (pH = 6.0) was used as small intestinal α-glucosidases of maltase and sucrase. A test compound was dissolved in dimethylsulfoxide (DMSO), and the resulting solution was diluted with 0.1 M maleate buffer to prepare the test compound solution (concentration of DMSO: 10%). The substrate solution in maleate buffer ([…], 50 μL), a test compound solution (25 μL), and the enzyme solution (25 μL) were mixed and incubated at 37 °C for 30 min. After incubation, the solution was immediately heated by boiling water for 2 min to stop the reaction, and the solution was mixed with water (150 μL). Glucose concentration was determined by the glucose-oxidase method. […] The IC50 value was determined graphically by a plot of percent inhibition versus log of the test compound.

Data set [2] concerns the target T1, rat intestinal sucrase (Rattus norvegicus, UniProt P23739).
T1 construct: rat small intestinal brush border membrane vesicles were first prepared; from tissue; host or cells: rat small intestine, brush border membrane vesicles
In words: In vitro α-glucosidase inhibition assay, rat intestinal sucrase. It is filed as biochemical. As for the experimental part: as §1

Data set [3] deals with rat intestinal maltase. In words: Inhibition-kinetic study (Lineweaver–Burk), maltase. The format is biochemical. As for the experimental part: (§2) In order to explore the inhibitory mechanism of the α-glucosidase by this family of compounds, enzyme kinetic assays were conducted on 20a, 20c, and 10, followed by a detailed kinetic analysis using the Lineweaver–Burk plots. (Figure 3) The small intestinal brush border membrane vesicles were incubated with varying concentrations of maltose (3.27 mg/mL) for maltase assays and sucrose (52.37 mg/mL) for sucrase assays.
(§3) For kinetic analyses of maltase and sucrase by compounds (20a, 20c, and 10), the enzyme and test samples (1.0 mg/mL for maltase and 0.2 mg/mL for sucrase) were incubated with increasing concentrations of maltose (2.5, 5, 10, 20, 50, 100 μM) and sucrose (5, 10, 20, 50, 100, 1000 μM) at 37 °C for 30 min. The tube was immediately immersed in boiling water for 2 min to stop the reaction, then cooled with water. The glucose concentration was determined by the glucose-oxidase method. […] The Lineweaver–Burk equation follows as: 1/V=Km/Vmax×[…]
(§4) Ki values for each inhibitor were determined by the equation: Ki=[I]×Km/[[…]−Km]

The target of data set [4] is T1, rat intestinal sucrase. Briefly: Inhibition-kinetic study (Lineweaver–Burk), sucrase. The format is biochemical. As for the experimental part:
as §2, §3, §4

Data set [5] relates to HELF, a human embryonic lung fibroblast cell line. In words: MTT cytotoxicity assay on HELF cells. As to conditions: different cell lines. It is filed as cell-based. As for the experimental part:
The cytotoxicity of selected sulfonium salts (20a, 20c, and 10) was then evaluated via the 3-[4,5-dimethylthiazol-2-yl]-2,5-diphenyl-tetrazolium bromide (MTT) assay against different cell lines.
Briefly, the HELF-adherent cells were cultured in a 96-well plate overnight in a CO2 environment at 37 °C. Supernatant was removed, and 100 μL serially diluted compounds with complete medium DMEM supplemented with 10% (v/v) fetal bovine serum, penicillin (100 units/mL), and streptomycin (100 μg/mL) were added to each well. After the incubation, the culture medium was aspirated carefully, and 50 μL of MTT solution (2mg/mL PBS) was added to each well and further incubated for 4h. After this, MTT solution was aspirated, and cells were PBS-washed once, and 100 μL of DMSO was added to dissolve the blue insoluble MTT formazan produced by the action of mitochondrial dehydrogenase. The plate was agitated at room temperature for 15 min and then read at 570 nm by using a microplate reader. The percentage of viable cells was calculated as the relative ratio of optical densities.
On the technique in general: Formazan colour is commonly taken as a measure of viable cells.

A further data set concerns sucrose-loaded mice. In words: Sucrose loading test (hypoglycemic effect). It is filed as in vivo, ICR mice. As to conditions: sucrose loading […] p.o. As for the experimental part:
Research has shown a strong association between the 2 h postprandial blood glucose level and the risk of cardiovascular events, diabetic microvascular complications such as retinopathy, and the progression of macrovascular diseases. […] Considering this underlying pathological process, α-glucosidase inhibitors, which efficiently regulate postprandial glucose fluctuations, hold significant therapeutic promise for alleviating diabetes-related complications. […] Subsequently, doses were reduced to 1.0 mg/kg.
(§5) The animal experimental protocols in this study were approved by the Experimental Animal Center of Shanghai Institute of Materia Medica (Shanghai, China). Male ICR (Institute of Cancer Research) mice (29−33 g) after an overnight fast were used for acute maltose and sucrose loading tests. In the maltose loading test, maltose (2.0 mpk of body weight) and the inhibitors and voglibose were dissolved in distillation−distillation water and administered to the mice via a stomach tube. A control group was loaded with distillation−distillation water. In the sucrose loading test, sucrose (2.5 g/kg of body weight) and the inhibitor miglitol were dissolved in distillation−distillation water and administered to the mice via a stomach tube. A control group was loaded with distillation−distillation water. Blood samples for glucose measurements were obtained from the tail vein at 0, 15, 30, 60, and 120 min after maltose and sucrose loading. The blood glucose levels were measured by a portable kit, StatStrip Xpress (Nova Biomedical Co., Ltd., Waltham, MA, USA). The AUC over was calculated by the trapezoidal method.

The subject of the next data set is maltose-loaded mice. In words: Maltose loading test (hypoglycemic effect). The format is in vivo, ICR mice. As to conditions: maltose loading 2.0 g/kg, 1.0 mpk. As for the experimental part: A maltose loading test on compounds 10, 20c, neoponkoranol, and positive control (voglibose) was conducted to further evaluate their in vivo hypoglycemic effects against maltase.
as §5, with “In the maltose loading test, maltose (2.0 mpk of body weight) and the inhibitors and voglibose were dissolved in distillation−distillation water and administered to the mice via a stomach tube.” left out

Setting [6] is: rat small intestinal brush border membrane vesicles, sucrose substrate, mean ± SD (n = 3), read-out: IC50 against sucrase.

T1 sequence (P23739 whole entry): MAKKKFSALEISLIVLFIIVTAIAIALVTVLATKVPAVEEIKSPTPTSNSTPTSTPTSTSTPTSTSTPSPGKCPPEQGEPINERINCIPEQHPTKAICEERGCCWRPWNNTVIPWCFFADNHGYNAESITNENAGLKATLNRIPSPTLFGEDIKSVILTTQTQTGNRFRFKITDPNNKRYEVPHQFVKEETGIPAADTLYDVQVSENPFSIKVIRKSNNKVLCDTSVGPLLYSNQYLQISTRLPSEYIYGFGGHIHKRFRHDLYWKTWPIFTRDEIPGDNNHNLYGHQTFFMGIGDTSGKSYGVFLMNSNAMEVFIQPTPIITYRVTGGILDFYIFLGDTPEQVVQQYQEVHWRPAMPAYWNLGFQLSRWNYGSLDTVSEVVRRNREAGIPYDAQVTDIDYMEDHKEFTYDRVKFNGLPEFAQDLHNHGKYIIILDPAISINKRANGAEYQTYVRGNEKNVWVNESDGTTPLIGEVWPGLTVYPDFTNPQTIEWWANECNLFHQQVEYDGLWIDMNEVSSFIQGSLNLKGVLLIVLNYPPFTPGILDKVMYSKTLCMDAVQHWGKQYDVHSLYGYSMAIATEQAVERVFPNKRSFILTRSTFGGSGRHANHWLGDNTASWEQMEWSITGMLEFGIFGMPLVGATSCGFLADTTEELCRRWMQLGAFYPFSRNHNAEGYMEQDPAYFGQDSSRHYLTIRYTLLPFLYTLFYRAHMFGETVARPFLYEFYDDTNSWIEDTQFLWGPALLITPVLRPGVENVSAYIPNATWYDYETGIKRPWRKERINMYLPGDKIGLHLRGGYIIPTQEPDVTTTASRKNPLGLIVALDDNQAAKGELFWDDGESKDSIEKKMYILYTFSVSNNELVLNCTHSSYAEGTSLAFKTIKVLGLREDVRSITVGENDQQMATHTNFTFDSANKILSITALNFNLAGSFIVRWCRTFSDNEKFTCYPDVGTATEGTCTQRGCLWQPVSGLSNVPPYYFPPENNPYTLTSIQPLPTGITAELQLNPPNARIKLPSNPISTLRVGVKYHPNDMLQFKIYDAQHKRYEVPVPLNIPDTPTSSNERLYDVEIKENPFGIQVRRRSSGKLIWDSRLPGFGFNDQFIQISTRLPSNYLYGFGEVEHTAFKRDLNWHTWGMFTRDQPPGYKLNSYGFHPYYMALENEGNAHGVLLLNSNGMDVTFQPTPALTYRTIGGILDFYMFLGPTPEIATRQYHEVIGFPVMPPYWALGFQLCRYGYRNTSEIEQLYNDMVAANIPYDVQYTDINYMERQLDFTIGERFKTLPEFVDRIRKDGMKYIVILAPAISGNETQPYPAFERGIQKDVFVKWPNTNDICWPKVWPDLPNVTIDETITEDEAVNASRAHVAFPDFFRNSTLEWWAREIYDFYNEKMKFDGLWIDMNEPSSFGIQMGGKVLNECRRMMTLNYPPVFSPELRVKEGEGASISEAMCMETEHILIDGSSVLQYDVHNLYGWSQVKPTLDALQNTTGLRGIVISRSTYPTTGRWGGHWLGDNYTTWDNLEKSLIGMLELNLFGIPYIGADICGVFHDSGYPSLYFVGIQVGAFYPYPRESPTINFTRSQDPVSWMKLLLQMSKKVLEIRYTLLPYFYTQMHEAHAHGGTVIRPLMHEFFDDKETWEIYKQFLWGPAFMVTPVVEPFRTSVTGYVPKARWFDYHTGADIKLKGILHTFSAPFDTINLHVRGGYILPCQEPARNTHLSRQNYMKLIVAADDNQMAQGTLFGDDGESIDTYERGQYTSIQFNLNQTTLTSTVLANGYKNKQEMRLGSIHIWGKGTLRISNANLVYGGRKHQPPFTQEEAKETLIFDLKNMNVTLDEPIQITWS

A word on the IC50: it is the concentration needed to halve the response being measured. For the compound `OC[C@@H]1[C@@H](O)[C@H](O)C[Se@+]1C[C@@H](O)[C@H]1OC(c2cc(Cl)cc(Cl)c2)OC[C@H]1O` (stereo partly drawn) [20g, (1S,2R,3S,4S)-1-((2S)-2-((4S,5R)-2-(3,5-Dichlorophenyl)-5-hydroxy-1,3–dioxan-4-yl)-2-hydroxyethyl)-3,4-dihydroxy-2-(hydroxymethyl)tetrahydro-1H-selenophen-1-ium Chloride], the IC50 on rat intestinal maltase [1] turned out to be 710 ± 210 nM; at rat intestinal sucrase [2] it was 220 ± 50 nM.

Take `OC[C@@H]1[C@@H](O)[C@H](O)C[Se@@+]1C[C@@H](O)[C@H]1OC(c2ccccc2I)OC[C@H]1O` (stereo partly drawn) [20o, (1S,2R,3S,4S)-3,4-Dihydroxy-1-((2S)-2-hydroxy-2-((4S,5R)-5-hydroxy-2-(2-iodophenyl)-1,3-dioxan-4-yl)ethyl)-2-(hydroxymethyl)tetrahydro-1H-selenophen-1-ium chloride]: the IC50 on rat intestinal maltase [1] is 360 ± 70 nM; at rat intestinal sucrase [2] it was 300 ± 110 nM.

As to `OCC1C(O)C(O)C[S+]1CC(O)C1OC(c2ccccc2I)OCC1O` [19o, 1,4-Dideoxy-1,4-[(R)-(5-deoxy-1,3-O-(o-iodobenzylidene)-D-arabinitol-5-yl)episulfoniumylidene]-D-arabinitol chloride], the IC50 was 3100 ± 660 nM on rat intestinal maltase [1] and 3300 ± 280 nM on rat intestinal sucrase [2] (setting [6]).

As to `OC[C@@H]1[C@@H](O)[C@H](O)C[Se@+]1C[C@@H](O)[C@H]1OC(c2ccc(Cl)cc2Cl)OC[C@H]1O` (stereo partly drawn) [20b, (1S,2R,3S,4S)-1-((2S)-2-((4S,5R)-2-(2,4-Dichlorophenyl)-5-hydroxy-1,3-dioxan-4-yl)-2-hydroxyethyl)-3,4-dihydroxy-2-(hydroxymethyl)tetrahydro-1H-selenophen-1-ium chloride], the half-inhibitory concentration (IC50) was found to be 260 ± 80 nM on rat intestinal maltase [1] and 220 ± 60 nM on rat intestinal sucrase [2].

On to `OC[C@@H]1[C@@H](O)[C@H](O)C[Se@+]1C[C@@H](O)[C@H]1OC(c2cccc(Br)c2)OC[C@H]1O` (stereo partly drawn) [20l, (1S,2R,3S,4S)-1-((2S)-2-((4S,5R)-2-(3-Bromophenyl)-5-hydroxy-1,3-dioxan-4-yl)-2-hydroxyethyl)-3,4-dihydroxy-2-(hydroxymethyl)tetrahydro-1H-selenophen-1-ium chloride], for which the 50% inhibitory concentration (IC50) on rat intestinal maltase [1] is 690 ± 50 nM; against rat intestinal sucrase [2], 210 ± 20 nM.

Take `OC[C@@H]1[C@@H](O)[C@H](O)C[Se@+]1C[C@@H](O)[C@H]1OC(c2ccccc2F)OC[C@H]1O` (stereo partly drawn) [20n, (1S,2R,3S,4S)-1-((2S)-2-((4S,5R)-2-(2-Fluorophenyl)-5-hydroxy-1,3-dioxan-4-yl)-2-hydroxyethyl)-3,4-dihydroxy-2-(hydroxymethyl)tetrahydro-1H-selenophen-1-ium chloride]: the IC50 is 3750 ± 580 nM on rat intestinal maltase [1] and 200 ± 60 nM at rat intestinal sucrase [2].

For the compound `OC[C@@H]1[C@@H](O)[C@H](O)C[Se@+]1C[C@@H](O)[C@H]1OC(c2cccc(F)c2Cl)OC[C@H]1O` (stereo partly drawn) [20d, (1S,2R,3S,4S)-1-((2S)-2-((4S,5R)-2-(2-Chloro-3-fluorophenyl)-5-hydroxy-1,3-dioxan-4-yl)-2-hydroxyethyl)-3,4-dihydroxy-2-(hydroxymethyl)tetrahydro-1H-selenophen-1-ium chloride], the IC50 on rat intestinal maltase [1] turned out to be 620 ± 70 nM; against rat intestinal sucrase [2] it was 870 ± 230 nM.

Turning to `OCC1C(O)C(O)C[S+]1CC(O)C1OC(c2cc(C(F)(F)F)cc(C(F)(F)F)c2)OCC1O` [19i, 1,4-Dideoxy-1,4-[(R)-(5-deoxy-1,3-O-(3,5-bis(trifluoromethyl)benzylidene)-D-arabinitol-5-yl)episulfoniumylidene]-D-arabinitol chloride], the IC50 on rat intestinal maltase [1] was 8900 ± 530 nM; on rat intestinal sucrase [2] (setting [6]), 10000 ± 1800 nM.

The term Ki denotes the equilibrium dissociation constant of an inhibitor or competing ligand from its target. As to `O=[N+]([O-])c1ccccc1C1OC[C@@H](O)[C@@H]([C@H](O)C[S@@+]2C[C@@H](O)[C@H](O)[C@H]2CO)O1` (stereo partly shown) [compound 10], the “type of inhibition, maltase” value with rat intestinal maltase [3] (Lineweaver–Burk plots) is given as “fully competitive”. Further, the “Ki Maltase (Km = 3.0 mM)” value on rat intestinal maltase [3] (small intestinal α-glucosidase, Lineweaver–Burk) was found to be 0.42 µg/mL. For the same compound, the “type of inhibition, sucrase” value on rat intestinal sucrase [4] (Lineweaver–Burk plots) was “fully competitive”. For the same compound, the Ki on rat intestinal sucrase [4] (small intestinal α-glucosidase, Lineweaver–Burk, read-out: Ki Sucrase (Km = 23.56 mM) (converted)) is 693 nM. In data set [5], the “cytotoxicity (MTT assay)” value is listed as “non-toxic”. Moreover, the “Declined Rate of Blood Glucose Levels, 15 min” value is given as 41.8% in the data set with sucrose-loaded mice (1.0 mpk); 48.0% in the data set with sucrose-loaded mice (10.0 mpk); 52.8% in the data set on maltose-loaded mice (15 min, 1 mg/kg). The “Declined Rate of Blood Glucose Levels, 30 min” value in the data set with sucrose-loaded mice (1.0 mpk) is listed as 43.00%; in the data set on sucrose-loaded mice (10.0 mpk) it was 54.6%; in the data set on maltose-loaded mice (30 min, 1 mg/kg), 55.0%. In addition, the “Declined Rate of Blood Glucose Levels, 60 min” value with sucrose-loaded mice (1.0 mpk) is 39.1%; in the data set with sucrose-loaded mice (10.0 mpk), 52.5%; in the data set with maltose-loaded mice (60 min, 1 mg/kg) it was 47.2%. Moreover, the “Declined Rate of AUC” value worked out at 35.2% in the data set on sucrose-loaded mice (1.0 mpk), 46.6% with sucrose-loaded mice (10.0 mpk) and 43.5% with maltose-loaded mice (AUC).

Regarding `OCC1C(O)C(O)C[S+]1CC(O)C1OC(c2ccccc2-c2ccccc2)OCC1O` [19r, 1,4-Dideoxy-1,4-[(R)-(5-deoxy-1,3-O-(2-phenylbenzylidene)-D-arabinitol-5-yl)episulfoniumylidene]-D-arabinitol chloride], the IC50 is 10500 ± 1100 nM at rat intestinal maltase [1] and 3300 ± 220 nM on rat intestinal sucrase [2] (setting [6]).

As for `OCC1C(O)C(O)C[S+]1CC(O)C1OC(c2cc(F)cc(Cl)c2)OCC1O` [19h, 1,4-Dideoxy-1,4-[(R)-(5-deoxy-1,3-O-(3-chloro-5-fluorobenzylidene)-D-arabinitol5-yl)episulfoniumylidene]-D-arabinitol chloride], the concentration for half-maximal inhibition (IC50) was 850 ± 280 nM on rat intestinal maltase [1] and 1400 ± 330 nM at rat intestinal sucrase [2] (setting [6]).
